One data set in a line: physchem. An excerpt:
(§1) FIG. 12 depicts the quantity of various dyes in sericin and fibroin per gram of raw silk as a function of their n-octanol/water partition coefficient (log p).
(§2) FIG. 12 summarizes the amounts of various dyes distributed in silk's fibroin and sericin as a function of log P, a measure of hydrophobicity.

For data set [1], the system named is silkworm. Description: Uptake of dyes into the silkworm and the silk fibroin after feeding dye-modified feed. The following applies: for Uptake of dye in worm / Uptake of dye in fibroin: dye fed to silkworm in modified feed; for Uptake of dye in fibroin: silk fibroin. The format is in vivo. An excerpt: The modified feed was then fed to silkworms starting on the third day of fifth instar. The silk gland, obtained through dissection, also absorbed the dye and became colored. At day 8-9 of fifth instar, the silkworms started producing intrinsically colored and fluorescent silk cocoon as shown in FIG. 3. […]

Data set [2] concerns silkworm. Kind of data set: Quantity of various dyes in sericin, fibroin and gland content of dye-fed silkworms.
Text: as §1, §2

Where [3] appears, read: other dye molecules apart from the rhodamine series, feeding method.

“Also recorded” adds a separate entry of the source.

Consider `O=C(O)c1ccccc1C1=c2cc3c4c(c2Oc2c1cc1c5c2CCCN5CCC1)CCC[N+]=4CCC3.[Cl-]` [Rhodamine 101, rhodamine 101], for which the “log P (n-octanol/water partition coefficient)” value in “physchem” turned out to be 2.19. Also, in the data set with silkworm [1], the “Uptake of dye in worm” value is listed as “yes” and the “Uptake of dye in fibroin” value was “yes”. Also, in the data set on silkworm [2] (FIG. 12, result in words), the “Amount of dye present in silk (sericin and fibroin) and silkworm” value (from here on “Amount of dye present in silk”) is recorded as “much higher concentration”; the “Distribution of dye between silk sericin and fibroin” value is “majority residing in silk fibroin rather than sericin”.
Turning to rhodamine 123, in the data set with silkworm [1], the “Uptake of dye in worm” value is reported as “no” and the “Uptake of dye in fibroin” value is “no”.
In the case of `O=S(=O)([O-])c1cc(S(=O)(=O)O)ccc1C1=c2cc3c4c(c2Oc2c1cc1c5c2CCCN5CCC1)CCC[N+]=4CCC3` [sulforhodamine 101], the “log P (n-octanol/water partition coefficient)” value in the data set “physchem” is reported as −0.69. Moreover, in the data set with silkworm [2] (in vivo), the “Amount of dye present in silk” value is “negligible presence in silk and in silkworm”.
Take `CCN(CC)c1ccc2c(c1)Oc1cc(N(CC)CC)ccc1C21OC(=O)c2ccccc21` [Rhodamine B base, rhodamine B base]: in the data set on silkworm [1], the “Uptake of dye in worm” value is recorded as “yes” and the “Uptake of dye in fibroin” value is listed as “yes”.
In the case of Alcian blue, the “Uptake into silk gland and silk” value in the data set with silkworm [1] (in vivo) is listed as “did not display significant uptake”.
On to `O=S1(=O)OC(c2cc(Br)c(O)c(Br)c2)(c2cc(Br)c(O)c(Br)c2)c2ccccc21` [Bromophenol blue], for which, in the data set with silkworm [1] (setting [3]), the “Uptake into silk gland and silk” value is “did not display significant uptake”.
As for `Cl.N=c1ccc2c(-c3ccccc3C(=O)O)c3ccc(N)cc3oc-2c1` [Rhodamine 110, rhodamine 110], in the data set “physchem”, the “log P (n-octanol/water partition coefficient)” value turned out to be 1.17. Further, the “Amount of dye present in silk” value in the data set with silkworm [2] (FIG. 12, result in words) was “substantial amounts in both sericin and fibroin; also recorded: lower uptake”.
In the case of `CN(C)c1ccc2cc3ccc(N(C)C)cc3nc2c1` [Acridine orange, acridine orange], in the data set “physchem”, the logP (in general, the decadic logarithm of the partition coefficient of the neutral form, usually between octanol and water) came to 1.8. In the data set on silkworm [1] (setting [3]), the “Uptake into silk gland and silk” value was “efficient uptake”. Moreover, in the data set on silkworm [2] (in vivo), the “Amount of dye present in silk” value is “very low concentration in silk”; the “Concentration in gland content” value was “very low”.
Take rhodamine 116: the “log P (n-octanol/water partition coefficient)” value in the data set “physchem” (measure of hydrophobicity) is reported as 0.64.
For `O=C1OC2(c3ccc(O)cc3Oc3cc(O)ccc32)c2ccccc21` [Fluorescein, fluorescein], the logP in the data set “physchem” was -0.79. Further, the “Uptake into silk gland and silk” value in the data set with silkworm [1] (setting [3]) is on record as “did not display significant uptake”. Besides, in the data set with silkworm [2] (in vivo), the “Amount of dye present in silk” value is “negligible presence in silk and in silkworm”.
Consider `CCN(CC)c1ccc2c(-c3ccccc3C(=O)O)c3ccc(=[N+](CC)CC)cc-3oc2c1.[Cl-]` [Rhodamine B, rhodamine B], for which the “log P (n-octanol/water partition coefficient)” value in the data set “physchem” (measure of hydrophobicity) was found to be 2.43. In the data set on silkworm [1], the “Uptake of dye in worm” value is given as “yes” and the “Uptake of dye in fibroin” value is on record as “yes”. Further, in the data set with silkworm [2] (FIG. 12, result in words), the “Amount of dye present in silk” value is reported as “much higher concentration”; the “Distribution of dye between silk sericin and fibroin” value was “majority residing in silk fibroin rather than sericin”. The “Concentration in gland content” value in the data set with silkworm [2] (in vivo) is about 1 mM.

The record behind these values is US20120039813A1, “INTRINSICALLY COLORED, LUMINESCENT SILK FIBROIN AND A METHOD OF PRODUCING THE SAME” (priority 2009, published 2012).
